Patent US9686983B2, “Tobacco axillary bud growth inhibitor and method for inhibiting tobacco axillary bud growth” (SDS BIOTECH K. K., priority 2013, dated 2017)

Assays:
[1] = system: tobacco axillary bud growth; assay: Tobacco axillary bud growth inhibition test, pot plants after top pruning, contact spray; format: in vivo, Nicotiana tabacum, Tsukuba 1 (flue-cured cultivar); conditions: single active ingredient, 20 ml sprayed per plant, 28 days after spraying
Procedure: (§1) Tobacco seedlings of Tsukuba 1 (flue-cured cultivar) were transplanted to 1/5000a Wagner pots filled with Kureha garden nursery soil. The plants were grown in a glasshouse, and the floral axis parts were removed at the time of single-flower bloom of tobacco (top pruning).
(§2) Samples were prepared by diluting the above-mentioned formulation containing 10% of chlorthal-dimethyl with water to predetermined concentrations, and adding thereto the formulation containing 70% of decyl alcohol so as to make each sample have a predetermined concentration, and subjected to the test (Examples 1 to 6). Samples were also prepared by diluting the formulation containing 10% of chlorthal-dimethyl with water to predetermined concentrations, and adding thereto the formulation containing 70% of 2-ethyl hexanol so as to make each sample have a predetermined concentration, and subjected to the test (Examples 7 to 12). Samples were also prepared by diluting the formulation containing 10% of chlorthal-dimethyl with water to predetermined concentrations, and adding thereto the formulation containing 70% of […] so as to make each sample have a predetermined concentration, and subjected to the test (Examples 13 to 18). Furthermore, as Comparative Examples, samples were prepared by diluting samples were also prepared by diluting the formulation containing 10% of chlorthal-dimethyl with water to predetermined concentrations (Comparative Examples 1 to 4), by diluting the formulation containing 70% of decyl alcohol with water to predetermined concentrations (Comparative Examples 5 to 7), and by diluting the formulation containing 70% of […] with water to predetermined concentrations (Comparative Examples 8 to 10), and by diluting the formulation containing 70% of […] with water to predetermined concentrations (Comparative Examples 11 to 13) to be subjected to the test. In addition, butralin (tradename: Blue Ribbon) (Comparative Example 14) was subjected to the test.
(§3) With respect to each of the formulations of the inhibitors for tobacco axillary bud growth, 20 ml of the water-diluted solutions of the respective inhibitors were separately sprayed using a contact-type axillary bud inhibitor spraying instrument equipped with a spot exhaust nozzle. One tobacco plant was planted per pot, and the tests were carried out in duplicate.
For the respective cases, states of inhibition of axillary bud growth 28 days after the spraying were investigated together with untreated groups sprayed with no inhibitor, and axillary bud growth inhibition rates were calculated by the following equation. Axillary bud growth inhibition rate=(fresh weight of axillary buds per plant of untreated group−fresh weight of axillary buds per plant of treated group)÷(fresh weight of axillary buds per plant of untreated group)×100 [Math. 1]
It should be noted that the values in parentheses in Table 1 represent predicted values of the effects of inhibiting axillary bud growth of mixed agents (that is, compounds mixed as active ingredients), that is, expected values of additive effects. The expected values were calculated by the following Colby's equation (Colby. S. R.; “Calculating Synergistic and Antagonistic Responses of Herbicide Combinations” Weed, Vol. 15(1), 20-22, 1967). Colby's equation: E=x+y−x·y/100 [Math. 2]
E: Axillary bud growth inhibition rate in the case of using a mixture of active compound A (concentration a) and active compound B (concentration b) (theoretical axillary bud growth inhibition rate)
x: Axillary bud growth inhibition rate in the case of using active compound A at concentration a
y: Axillary bud growth inhibition rate in the case of using active compound B at concentration b
In the case where a measured value determined in the above-mentioned test (axillary bud growth inhibition rate) was larger than the expected value, a synergetic effect was expressed on activity to suppress axillary bud growth.

[2] = system: tobacco leaves (first to fourth leaves from the top); assay: Harmful effect of the inhibitor on tobacco leaves (growth inhibition, gangrene, change in color, deformation); format: in vivo, Nicotiana tabacum, Tsukuba 1 (flue-cured cultivar)
Procedure: as §1, §2, §3
Further, the presence or absence of the harmful effect of each inhibitor was evaluated in one of the following four categories depending on the degrees of growth inhibition, gangrene, change in color, deformation and the like of leaves (first to fourth leaves from the top).
Large: A severely harmful effect was observed.
Middle: A clearly harmful effect was observed.
Small: A slightly harmful effect was observed.
Absent: No harmful effect was observed.

COC(=O)c1c(Cl)c(Cl)c(C(=O)OC)c(Cl)c1Cl [Comparative Ex. 1, dimethyl tetrachloroterephthalate]
Axillary bud growth inhibition (%) ([1]; concentration 0.002 %): 1.1% | Harmful effect ([2]; in vivo): None

COC(=O)c1c(Cl)c(Cl)c(C(=O)OC)c(Cl)c1Cl [Comparative Ex. 2, dimethyl tetrachloroterephthalate]
Axillary bud growth inhibition (%) ([1]; concentration 0.005 %): 4.2% | Harmful effect ([2]; in vivo): None

COC(=O)c1c(Cl)c(Cl)c(C(=O)OC)c(Cl)c1Cl [Comparative Ex. 3, dimethyl tetrachloroterephthalate]
Axillary bud growth inhibition (%) ([1]; concentration 0.01 %): 23.4% | Harmful effect ([2]; in vivo): None

COC(=O)c1c(Cl)c(Cl)c(C(=O)OC)c(Cl)c1Cl [Comparative Ex. 4, dimethyl tetrachloroterephthalate]
Axillary bud growth inhibition (%) ([1]; concentration 1 %): 100% | Harmful effect ([2]; in vivo): None

CCCCCCCCCCO [Comparative Ex. 5, Decyl alcohol]
Axillary bud growth inhibition (%) ([1]; concentration 0.7 %): 41.4% | Harmful effect ([2]; in vivo): None

CCCCCCCCCCO [Comparative Ex. 6, Decyl alcohol]
Axillary bud growth inhibition (%) ([1]; concentration 1.4 %): 68.6% | Harmful effect ([2]; in vivo): None

CCCCCCCCCCO [Comparative Ex. 7, Decyl alcohol]
Axillary bud growth inhibition (%) ([1]; concentration 2.6 %): 86.8%

CCCCC(CC)CO (stereo not drawn) [Comparative Ex. 8, 2-ethyl hexanol]
Axillary bud growth inhibition (%) ([1]; concentration 0.7 %): 33.1% | Harmful effect ([2]; in vivo): None

CCCCC(CC)CO (stereo not drawn) [Comparative Ex. 9, 2-ethyl hexanol]
Axillary bud growth inhibition (%) ([1]; concentration 1.4 %): 66.6% | Harmful effect ([2]; in vivo): None

CCCCC(CC)CO (stereo not drawn) [Comparative Ex. 10, 2-ethyl hexanol]
Axillary bud growth inhibition (%) ([1]; concentration 2.6 %): 82.1%

CC(C)=CCC/C(C)=C/CO [Comparative Ex. 11, Geraniol]
Axillary bud growth inhibition (%) ([1]; concentration 0.7 %): 52.1% | Harmful effect ([2]; single active ingredient, concentration 0.7 %, 20 ml sprayed per plant): None

CC(C)=CCC/C(C)=C/CO [Comparative Ex. 12, Geraniol]
Axillary bud growth inhibition (%) ([1]; concentration 1.4 %): 72.5% | Harmful effect ([2]; single active ingredient, concentration 1.4 %, 20 ml sprayed per plant): None

CC(C)=CCC/C(C)=C/CO [Comparative Ex. 13, Geraniol]
Axillary bud growth inhibition (%) ([1]; concentration 2.6 %): 87.9% | Harmful effect ([2]; single active ingredient, concentration 2.6 %, 20 ml sprayed per plant): Medium degree | Harmful effect ([2]; single active ingredient, concentration 2.6 %, 20 ml sprayed per plant, listed as Comparative Example 13): small or medium degree

CCC(C)Nc1c([N+](=O)[O-])cc(C(C)(C)C)cc1[N+](=O)[O-] (stereo not drawn) [Comparative Ex. 14, Butralin]
Axillary bud growth inhibition (%) ([1]; concentration 0.35 %): 98.2% | Harmful effect ([2]; in vivo): Small degree
